# Laboratory results from patent publication US20250114460A1, “NOVEL PLK1 DEGRADATION INDUCING COMPOUND” (UPPTHERA, INC., priority 2021, published 2025).
# Assays:
# [1] = molecular target: T1, PLK1 (Homo sapiens, UniProt P53350); assay: Luciferase assay for PLK1 in HeLa LgBit (Plk1-HiBit KI) cell line; format: cell-based; settings: 300 nM compound, luminescence after 9 hours
# T1 construct: endogenous in cells; host or cells: HeLa LgBit (Plk1-HiBit KI): HeLa stably expressing LgBit, with a CRISPR/Cas9 knock-in of HiBit at the endogenous PLK1 locus
# T1 sequence (P53350 whole entry): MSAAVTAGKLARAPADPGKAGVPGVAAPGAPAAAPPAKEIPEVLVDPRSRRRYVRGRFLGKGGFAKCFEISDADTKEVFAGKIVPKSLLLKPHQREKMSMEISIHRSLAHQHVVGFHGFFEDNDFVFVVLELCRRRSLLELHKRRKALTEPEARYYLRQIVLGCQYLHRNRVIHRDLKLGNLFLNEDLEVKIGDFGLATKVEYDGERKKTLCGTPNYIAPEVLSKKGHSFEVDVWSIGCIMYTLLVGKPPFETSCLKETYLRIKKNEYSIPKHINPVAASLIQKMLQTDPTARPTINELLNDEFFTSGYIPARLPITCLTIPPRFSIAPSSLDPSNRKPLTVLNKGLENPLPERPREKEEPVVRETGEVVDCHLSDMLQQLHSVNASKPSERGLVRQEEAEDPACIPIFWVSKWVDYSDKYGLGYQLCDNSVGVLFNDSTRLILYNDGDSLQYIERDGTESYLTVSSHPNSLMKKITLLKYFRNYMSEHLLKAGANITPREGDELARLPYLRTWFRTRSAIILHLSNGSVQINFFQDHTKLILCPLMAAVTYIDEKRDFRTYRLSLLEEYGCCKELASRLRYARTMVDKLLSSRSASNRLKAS
# In short: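 Luminescence, followed in real time after adding compound at 300 nM and Endurazine substrate, is reported relative to DMSO-treated wells. Cells are a HeLa LgBit line with a Plk1-HiBit knock-in, synchronized by 2 mM thymidine for 24 h, released, and cultured 18 h before treatment.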
# [2] = tested on: NCI-H526 cell line; assay: Cell viability assay for H526 cell (EZ-Cytox); format: cell-based; settings: Homo sapiens, NCI-H526, 120 h; H526 cells, 5 days, 3000 nM to 0.46 nM
# Experimental: (1) Culture of NCI-H526 Cell Line
# (2) Treatment of Compounds of the Present Invention and Method of Cell Viability Assay
# After treating the compound to each well to make the total volume of 200 μL, it was cultured in a CO2 incubator (Thermo Fisher Science, Cat. No. 4111) for 5 days.
# The absorbance of the completely cultured sample was measured by setting the wavelength of a plate reader (BMG Labtech, CLARIOstar Plus) to […], and was measured after shaking for 3 minutes in a plate reader before measurement.
# In Table 3, Activity represents IC50 value of each Exemplary Compound treatment group to H526 cell line (A: <30 nM, B: <50 nM, C: <100 nM, D: <200 nM, E: <400 nM).
SMILES,Activity: ratio of the luminescense value of each Exemplary Compound treatment group to DMSO treatment group [1],IC50 [2] [nM]
"COc1cc(C(=O)NC2CCN(C(=O)COc3cccc4c3C(=O)N(C3CCC(=O)NC3=O)C4=O)CC2)c(F)cc1Nc1ncc2c(n1)N(C1CCCC1)CC(F)(F)C(=O)N2C (stereo not shown) [Compound 37, 4-((9-cyclopentyl-7,7-difluoro-5-methyl-6-oxo-6,7,8,9-tetrahydro-5H-pyrimido[4,5-b][1,4]diazepin-2-yl)amino)-N-(1-(2-((2-(2,6-dioxopiperidin-3-yl)-1,3-dioxoisoindolin-4-yl)oxy)acetyl)piperidin-4-yl)-2-fluoro-5-methoxybenzamide]",++ (++<0.6),< 400
"COc1cc(C(=O)NC2CCN(C(=O)CCCSc3cccc4c3C(=O)N(C3CCC(=O)NC3=O)C4=O)CC2)c(F)cc1Nc1ncc2c(n1)N(C1CCCC1)CC(F)(F)C(=O)N2C (stereo not shown) [Compound 42, 4-((9-cyclopentyl-7,7-difluoro-5-methyl-6-oxo-6,7,8,9-tetrahydro-5H-pyrimido[4,5-b][1,4]diazepin-2-yl)amino)-N-(1-(4-((2-(2,6-dioxopiperidin-3-yl)-1,3-dioxoisoindolin-4-yl)thio)butanoyl)piperidin-4-yl)-2-fluoro-5-methoxybenzamide]",++ (++<0.6),< 100
"COc1cc(C(=O)NN2CCN(C3CCN(c4cccc5c4C(=O)N(C4CCC(=O)NC4=O)C5=O)C3)CC2)ccc1Nc1ncc2c(n1)N(C(C)C)CC(F)(F)C(=O)N2C (stereo not shown) [Compound 52, 4-((7,7-difluoro-9-isopropyl-5-methyl-6-oxo-6,7,8,9-tetrahydro-5H-pyrimido[4,5-b][1,4]diazepin-2-yl)amino)-N-(4-(1-(2-(2,6-dioxopiperidin-3-yl)-1,3-dioxoisoindolin-4-yl)pyrrolidin-3-yl)piperazin-1-yl)-3-methoxybenzamide]",++ (++<0.6),< 30
"COc1cc(N2CCC(CN3CCN(c4cccc5c4C(=O)N(C4CCC(=O)NC4=O)C5=O)CC3)CC2)c(F)cc1Nc1ncc2c(n1)N(C1CCCC1)CC(F)(F)C(=O)N2C (stereo not shown) [Compound 103, 4-(4-((1-(4-((9-cyclopentyl-7,7-difluoro-5-methyl-6-oxo-6,7,8,9-tetrahydro-5H-pyrimido[4,5-b][1,4]diazepin-2-yl)amino)-2-fluoro-5-methoxyphenyl)piperidin-4-yl)methyl)piperazin-1-yl)-2-(2,6-dioxopiperidin-3-yl)isoindoline-1,3-dione]",++ (++<0.6),< 200
"COc1cc(C(=O)NC2CCCN(C(=O)CN3CCN(c4cccc5c4C(=O)N(C4CCC(=O)NC4=O)C5=O)CC3)C2)ccc1Nc1ncc2c(n1)N(C1CCCC1)CC(F)(F)C(=O)N2C (stereo not shown) [Compound 122, 4-((9-cyclopentyl-7,7-difluoro-5-methyl-6-oxo-6,7,8,9-tetrahydro-5H-pyrimido[4,5-b][1,4]diazepin-2-yl)amino)-N-(1-(2-(4-(2-(2,6-dioxopiperidin-3-yl)-1,3-dioxoisoindolin-4-yl)piperazin-1-yl)acetyl)piperidin-3-yl)-3-methoxybenzamide]",+++ (+++: <0.3),< 30

# More lines, main results first:
Activity: ratio of the luminescense value of each Exemplary Compound treatment group to DMSO treatment group [1],SMILES,IC50 [2] [nM]
+++ (+++: <0.3),"COc1cc(C(=O)NCC2CCN(CC3CCN(c4cccc5c4C(=O)N(C4CCC(=O)NC4=O)C5=O)CC3)CC2)ccc1Nc1ncc2c(n1)N(C1CCCC1)CC(F)(F)C(=O)N2C (stereo not shown) [Compound 53, 4-((9-cyclopentyl-7,7-difluoro-5-methyl-6-oxo-6,7,8,9-tetrahydro-5H-pyrimido[4,5-b][1,4]diazepin-2-yl)amino)-N-((1-((1-(2-(2,6-dioxopiperidin-3-yl)-1,3-dioxoisoindolin-4-yl)piperidin-4-yl)methyl)piperidin-4-yl)methyl)-3-methoxybenzamide]",< 50
++ (++<0.6),"COc1cc(C(=O)N2CCN(CCN3CCN(c4cccc5c4C(=O)N(C4CCC(=O)NC4=O)C5=O)CC3)CC2)ccc1Nc1ncc2c(n1)N(C1CCCC1)CC(F)(F)C(=O)N2C (stereo not shown) [Compound 86, 4-(4-(2-(4-(4-((9-cyclopentyl-7,7-difluoro-5-methyl-6-oxo-6,7,8,9-tetrahydro-5H-pyrimido[4,5-b][1,4]diazepin-2-yl)amino)-3-methoxybenzoyl)piperazin-1-yl)ethyl)piperazin-1-yl)-2-(2,6-dioxopiperidin-3-yl)isoindoline-1,3-dione]",< 400
++ (++<0.6),"COc1cc(C(=O)N2CCC(CCN3CCN(c4cccc5c4C(=O)N(C4CCC(=O)NC4=O)C5=O)CC3)CC2)ccc1Nc1ncc2c(n1)N(C1CCCC1)CC(F)(F)C(=O)N2C (stereo not shown) [Compound 94, 4-(4-(2-(1-(4-((9-cyclopentyl-7,7-difluoro-5-methyl-6-oxo-6,7,8,9-tetrahydro-5H-pyrimido[4,5-b][1,4]diazepin-2-yl)amino)-3-methoxybenzoyl)piperidin-4-yl)ethyl)piperazin-1-yl)-2-(2,6-dioxopiperidin-3-yl)isoindoline-1,3-dione]",< 400
++ (++<0.6),"COc1cc(C(=O)N2CCC(CN3CCN(c4ccc5c(c4)C(=O)N(C4CCC(=O)NC4=O)C5=O)CC3)CC2)ccc1Nc1ncc2c(n1)N(C1CCCC1)CC(F)(F)C(=O)N2C (stereo not shown) [Compound 97, 5-(4-((1-(4-((9-cyclopentyl-7,7-difluoro-5-methyl-6-oxo-6,7,8,9-tetrahydro-5H-pyrimido[4,5-b][1,4]diazepin-2-yl)amino)-3-methoxybenzoyl)piperidin-4-yl)methyl)piperazin-1-yl)-2-(2,6-dioxopiperidin-3-yl)isoindoline-1,3-dione]",< 400
++ (++<0.6),"COc1cc(C(=O)N2CCC(CCCN3CCN(c4ccc5c(c4)C(=O)N(C4CCC(=O)NC4=O)C5=O)CC3)CC2)ccc1Nc1ncc2c(n1)N(C1CCCC1)CC(F)(F)C(=O)N2C (stereo not shown) [Compound 99, 5-(4-(3-(1-(4-((9-cyclopentyl-7,7-difluoro-5-methyl-6-oxo-6,7,8,9-tetrahydro-5H-pyrimido[4,5-b][1,4]diazepin-2-yl)amino)-3-methoxybenzoyl)piperidin-4-yl)propyl)piperazin-1-yl)-2-(2,6-dioxopiperidin-3-yl)isoindoline-1,3-dione]",< 400
++ (++<0.6),"COc1cc(C(=O)NC2CCN(C(=O)CN3CCN(c4ccc5c(c4)C(=O)N(C4CCC(=O)NC4=O)C5=O)CC3)CC2)ccc1Nc1ncc2c(n1)N(C1CCCC1)CC(F)(F)C(=O)N2C (stereo not shown) [Compound 127, 4-((9-cyclopentyl-7,7-difluoro-5-methyl-6-oxo-6,7,8,9-tetrahydro-5H-pyrimido[4,5-b][1,4]diazepin-2-yl)amino)-N-(1-(2-(4-(2-(2,6-dioxopiperidin-3-yl)-1,3-dioxoisoindolin-5-yl)piperazin-1-yl)acetyl)piperidin-4-yl)-3-methoxybenzamide]",< 100
